Here are results for 20 compounds from patent publication US7238813B2, “Chemical compounds” (Smithkline Beecham Corporation, priority 2000, dated 2007).

Test [1] concerns Human umbilical cord endothelial cells (HUVEC). The test is described as follows: VEGF-driven cellular proliferation assay: BrdU incorporation assay (VEGF-C). It is filed as cell-based. Also noted: key to VEGF-C: + = pIC50 of 5.0–6.0; ++ = pIC50 of 6.0–7.0; +++ = pIC50 of > 7.0; − = a negative or inconclusive result. The settings on record: for pIC50: Homo sapiens. In short, it runs like this:
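HUVEC (≤6 passages) were plated at 5000 cells/well and exposed to compound 30 min in serum-free M199 containing 0.6% DMSO. Medium with 20 ng/ml VEGF was then added for 24 h, followed by a 24 h pulse with 10 μM BrdU and ELISA read at 450 nm. IC50 from nonlinear regression of percent inhibition was expressed as pIC50.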
(Dividing cells build labelled thymidine or BrdU into new DNA.)

Test [2] addresses T1, TIE2 intracellular domain/c-fms extracellular domain (TIE2/c-fms) chimeric protein expressing mouse 3T3 cells (Homo sapiens, UniProt Q02763).
T1 construct: a TIE2 intracellular domain/c-fms extracellular domain (TIE2/c-fms) chimeric protein; expressed in transfected cells; host or cells: mouse 3T3 cells
The test is described as follows: TIE-2 autophosphorylation assay (TIE2-C), ELISA. It is filed as cell-based. The settings on record: TIE2/c-fms 3T3 cells, MCSF activation. An outline of the steps: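 Mouse 3T3 cells expressing TIE2 intracellular/c-fms extracellular chimera treated with compound for 1 hr in serum-free DMEM (0.1% DMSO), then stimulated with MCSF. Lysates captured on anti-c-fms plates overnight at 4 °C; phosphotyrosine detected by biotin-PT66/HRP-streptavidin, OD450. IC50 by nonlinear regression, reported as pIC50.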

In another test the target is T2, GST-VEGFR2 (Homo sapiens, UniProt P35968).
T2 construct: GST-VEGFR2, baculovirus expressed recombinant constructs of the intracellular domains of human TIE2 tagged by GST; made in house
The test is described as follows: VEGF-R2 enzyme assay (VEGF-E), LANCE method. The settings on record: 75 μM ATP. Format: biochemical. On the technique in general: In TR-FRET formats the signal depends on donor and acceptor labels being close together.

In test [3] the target is T3, GST-TIE2 (intracellular domains of human TIE2) (Homo sapiens, UniProt Q02763).
T3 construct: made in house
The test is described as follows: TIE-2 enzyme assay (TIE2-E), LANCE method. Format: biochemical. To be noted: 80 uM ATP. In short, it runs like this:
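Baculovirus GST-TIE2 (human intracellular domain, aa 762–1104) preactivated 30 min at RT with 2 mM ATP, then reacted 30 min at RT with 1 μM D1-15 peptide, 80 uM ATP, 10 mM MgCl2, pH 7.4, 2.4% DMSO. EDTA-stopped; LANCE Eu-anti-pTyr/streptavidin-APC read-out. IC50 by nonlinear regression, reported as pIC50.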

pIC50: −log10 of the molar value. Where a name gives a salt, the structure may show the parent alone.

T3 sequence (Q02763 762-1104): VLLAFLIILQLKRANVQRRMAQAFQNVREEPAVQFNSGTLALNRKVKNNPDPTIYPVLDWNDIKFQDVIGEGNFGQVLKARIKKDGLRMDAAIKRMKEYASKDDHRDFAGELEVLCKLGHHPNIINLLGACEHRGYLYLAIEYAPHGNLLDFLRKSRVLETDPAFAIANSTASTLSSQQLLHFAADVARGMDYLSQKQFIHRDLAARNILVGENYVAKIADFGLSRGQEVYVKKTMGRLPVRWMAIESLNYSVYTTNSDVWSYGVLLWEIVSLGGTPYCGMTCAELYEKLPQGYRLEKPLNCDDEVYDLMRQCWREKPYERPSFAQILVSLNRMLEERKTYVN
T1 sequence (Q02763 770-1124 limits assumed, change not shown): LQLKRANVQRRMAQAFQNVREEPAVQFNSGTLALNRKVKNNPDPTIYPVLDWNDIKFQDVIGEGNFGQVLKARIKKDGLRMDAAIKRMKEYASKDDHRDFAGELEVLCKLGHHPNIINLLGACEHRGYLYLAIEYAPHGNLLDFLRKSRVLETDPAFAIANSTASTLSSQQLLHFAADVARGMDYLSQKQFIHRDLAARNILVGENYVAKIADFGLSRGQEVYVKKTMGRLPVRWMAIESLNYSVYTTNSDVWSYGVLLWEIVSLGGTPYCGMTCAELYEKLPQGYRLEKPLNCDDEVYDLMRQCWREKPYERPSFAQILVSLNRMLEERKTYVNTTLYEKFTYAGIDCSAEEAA
T2 sequence (P35968 786-1356 limits assumed): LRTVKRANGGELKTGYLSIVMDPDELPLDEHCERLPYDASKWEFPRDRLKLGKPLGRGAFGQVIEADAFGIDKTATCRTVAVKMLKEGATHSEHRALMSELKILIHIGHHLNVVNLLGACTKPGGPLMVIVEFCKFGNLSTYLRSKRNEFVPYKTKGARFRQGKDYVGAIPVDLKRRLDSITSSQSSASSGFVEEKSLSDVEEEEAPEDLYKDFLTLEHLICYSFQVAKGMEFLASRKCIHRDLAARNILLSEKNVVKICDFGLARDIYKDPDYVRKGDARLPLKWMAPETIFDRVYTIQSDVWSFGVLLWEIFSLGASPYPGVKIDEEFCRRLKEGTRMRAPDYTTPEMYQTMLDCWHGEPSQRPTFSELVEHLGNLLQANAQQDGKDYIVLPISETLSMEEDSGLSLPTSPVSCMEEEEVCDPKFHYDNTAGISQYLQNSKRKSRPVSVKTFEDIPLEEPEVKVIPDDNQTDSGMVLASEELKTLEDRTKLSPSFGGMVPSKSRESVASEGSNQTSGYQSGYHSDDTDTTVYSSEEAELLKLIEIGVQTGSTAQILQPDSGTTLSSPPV

As for `COC(=O)Nc1nc2cc(Oc3ccc(NC(=O)Nc4cc(C(F)(F)F)ccc4F)cn3)ccc2[nH]1` [Example 37, Methyl N-(5-(5-((2-fluoro-5-(trifluoromethyl)phenyl)aminocarbonylamino)-2-pyridyloxy)-1H-benzimidazol-2-yl)carbamate], the VEGF-C entry in test [1] was “−”. Besides, the pIC50 (in test [2]; on GST-VEGFR2; in test [3]) was more than 7.00 each time.
`COC(=O)Nc1nc2cc(S(=O)(=O)c3ccc(NC(=O)Nc4cc(C(F)(F)F)ccc4F)cc3)ccc2[nH]1` [Example 12, Methyl N-(5-(4-((2-fluoro-5-(trifluoromethyl)phenyl)aminocarbonylamino)phenylsulfonyl)-1H-benzimidazol-2-yl)carbamate]: in test [1], the VEGF-C entry is “−”. In addition, the pIC50 (in general, −log10 of the IC50, conventionally taken in molar units) in test [2] was more than 7.00; against GST-VEGFR2, 5.00 to 6.00; in test [3], 6.00 to 7.00.
For `CN(C)CCCC(=O)Nc1nc2cc(Oc3ccc(NC(=O)Nc4cc(C(F)(F)F)ccc4F)cc3)ccc2[nH]1` [Example 92, N-(5-(4-((2-Fluoro-5-(trifluoromethyl)phenyl)aminocarbonylamino)phenoxy)-1H-benzimidazol-2-yl)-4-(dimethylamino)butylamide], the pIC50 (in test [1]; in test [2]; against GST-VEGFR2; in test [3]) was more than 7.00 in each case.
Consider `O=C1CCn2c(nc3ccc(Oc4ccc(NC(=O)Nc5cc(C(F)(F)F)ccc5F)cc4)nc32)N1` [Example 77], for which the pIC50 is 6.00 to 7.00 in test [1], more than 7.00 in test [2], more than 7.00 at GST-VEGFR2 and more than 7.00 in test [3].
As to `CC(=O)NCC(=O)Nc1nc2cc(Oc3ccc(NC(=O)Nc4cc(C(F)(F)F)ccc4F)cc3)ccc2[nH]1` [Example 29, N-(5-(4-((2-Fluoro-5-(trifluoromethyl)phenyl)aminocarbonylamino)phenoxy)-1H-benzimidazol-2-yl)-2-(N-acetylamino)acetamide], the pIC50 in test [1] was 6.00 to 7.00; in test [2], more than 7.00; at GST-VEGFR2, more than 7.00; in test [3], more than 7.00.
As to `CC(C)(C)OC(=O)NCC(=O)Nc1nc2cc(Oc3ccc(NC(=O)Nc4cc(C(F)(F)F)ccc4F)cc3)ccc2[nH]1` [Example 35, N-(5-(4-((2-Fluoro-5-(trifluoromethyl)phenyl)aminocarbonylamino)phenoxy)-1H-benzimidazol-2-yl)-2-(N-(t-butoxycarbony)amino)acetamide], the pIC50 was 5.00 to 6.00 in test [1], 6.00 to 7.00 in test [2], more than 7.00 at GST-VEGFR2 and more than 7.00 in test [3].
For the compound `COC(=O)Nc1nc2cc(Oc3ccc(NC(=O)Nc4cc(C(F)(F)F)ccc4Cl)cc3)ccc2[nH]1` [Example 43], the pIC50 in test [1] was 5.00 to 6.00; in test [2], more than 7.00; against GST-VEGFR2, more than 7.00; in test [3], more than 7.00.
As for `Cc1ccc(S(=O)(=O)n2c(N)nc3ccc(Oc4ccc(NC(=O)Nc5cc(C(F)(F)F)ccc5F)cc4)cc32)cc1` [Example 24, 6-(4-((2-Fluoro-5-(trifluoromethyl)phenyl)aminocarbonylamino)phenoxy)-1-(4-(methyl)phenylsulfonyl)-1H-benzimidazol-2-ylamine], the VEGF-C result in test [1] is reported as “−”. The pIC50 in test [2] is 6.00 to 7.00; against GST-VEGFR2, more than 7.00; in test [3] it was more than 7.00.
As to `COC(=O)Nc1nc2cc([S+]([O-])c3ccc(NC(=O)Nc4cc(C(F)(F)F)ccc4F)cc3)ccc2[nH]1` (centres unmarked) [Example 13, Methyl N-(5-(4-((2-fluoro-5-(trifluoromethyl)phenyl)aminocarbonylamino)phenylsulfinyl)-1H-benzimidazol-2-yl)carbamate], the VEGF-C entry in test [1] is “−”. The negative-log IC50 (pIC50) in test [2] was 6.00 to 7.00; on GST-VEGFR2, 6.00 to 7.00; in test [3], more than 7.00.
In the case of `COC(=O)Nc1nc2cc(Oc3ccc(NC(=O)Nc4ccc(Cl)c(C(F)(F)F)c4)cc3)ccc2[nH]1` [Example 44, Methyl N-(5-(4-((4-chloro-3-(trifluoromethyl)phenyl)aminocarbonylamino)phenoxy)-1H-benzimidazol-2-yl)carbamate], in test [1], the VEGF-C entry is “−”. Further, the pIC50 was 6.00 to 7.00 in test [2], more than 7.00 on GST-VEGFR2 and more than 7.00 in test [3].
In the case of `CC(C)(C)OC(=O)Nc1nc2cc(Oc3ccc(NC(=O)Nc4cc(C(F)(F)F)ccc4F)cc3)ccc2[nH]1` [Example 18, t-Butyl N-(5-(4-((2-fluoro-5-(trifluoromethyl)phenyl)aminocarbonylamino)phenoxy)-1H-benzimidazol-2-yl)carbamate], the negative-log IC50 (pIC50) (in test [1]; in test [2]; at GST-VEGFR2; in test [3]) was more than 7.00 each time.
As for `COCC(=O)Nc1nc2cc(Oc3ccc(NC(=O)Nc4cc(C(F)(F)F)ccc4F)cc3)ccc2[nH]1` [Example 31, N-(5-(4-((2-Fluoro-5-(trifluoromethyl)phenyl)aminocarbonylamino)phenoxy)-1H-benzimidazol-2-yl)-2-methoxyacetamide], the pIC50 (in test [1]; in test [2]; against GST-VEGFR2; in test [3]) was more than 7.00 each time.
Turning to `NCC(=O)Nc1nc2cc(Oc3ccc(NC(=O)Nc4cc(C(F)(F)F)ccc4F)cc3)ccc2[nH]1` [Example 30, N-(5-(4-((2-Fluoro-5-(trifluoromethyl)phenyl)aminocarbonylamino)phenoxy)-1H-benzimidazol-2-yl)-2-aminoacetamide dihydrochloride], the pIC50 in test [1] was 6.00 to 7.00; in test [2], more than 7.00; on GST-VEGFR2, more than 7.00; in test [3], more than 7.00.
Consider `COC(=O)Nc1nc2ccc(Oc3ccc(NC(=O)Nc4cc(C(F)(F)F)ccc4F)cc3)cc2n1CCN(C)C` [Example 70, Methyl N-(6-(4-((2-fluoro-5-(trifluoromethyl)phenyl)aminocarbonylamino)phenoxy)-1-(2-(dimethylamino)ethyl)-1H-benzimidazol-2-yl)carbamate], for which the pIC50 was 5.00 to 6.00 in test [1], 6.00 to 7.00 in test [2], more than 7.00 on GST-VEGFR2 and more than 7.00 in test [3].
Turning to `O=C(Nc1ccc(Oc2ccc3nc(NC(=O)c4cccnc4)[nH]c3c2)cc1)Nc1cc(C(F)(F)F)ccc1F` [Example 93, N-(5-(4-((2-Fluoro-5-(trifluoromethyl)phenyl)aminocarbonylamino)phenoxy)-1H-benzimidazol-2-yl)-3-pyridinecarboxamide], the negative logarithm of the IC50 (pIC50) in test [1] is 5.00 to 6.00; in test [2], more than 7.00; against GST-VEGFR2 it was more than 7.00; in test [3], more than 7.00.
On to `COC(=O)Nc1nc2cc(Sc3ccc(NC(=O)Nc4cc(C(F)(F)F)ccc4Cl)cc3)ccc2[nH]1.Cl` [Example 51, Methyl N-(5-(4-((2-chloro-5-(trifluoromethyl)phenyl)aminocarbonylamino)phenylthio)-1H-benzimidazol-2-yl)carbamate hydrochloride], for which the VEGF-C entry in test [1] was “−”. In addition, the pIC50 (in test [2]; against GST-VEGFR2; in test [3]) was more than 7.00 throughout.
Turning to `COC(=O)Nc1nc2cc(Oc3ccc(NC(=O)Nc4cc(C(F)(F)F)ccc4Cl)cn3)ccc2[nH]1` [Example 111, Methyl-N-(5-(5-((2-chloro-5-(trifluoromethyl)phenyl)aminocarbonylamino)-2-pyridyloxy)-1H-benzimidazol-2-yl)carbamate], in test [1], the VEGF-C result is “−”. Moreover, the pIC50 (in test [2]; on GST-VEGFR2; in test [3]) was more than 7.00 in each case.
Regarding `COC(=O)Nc1nc2cc(Oc3ccc(NC(=O)Nc4cc(Cl)ccc4Cl)cc3)ccc2[nH]1` [Example 45, Methyl N-(5-(4-((2,5-dichlorophenyl)aminocarbonylamino)phenoxy)-1H-benzimidazol-2-yl)carbamate], the VEGF-C entry in test [1] is “−”. The pIC50 (in test [2]; against GST-VEGFR2; in test [3]) was more than 7.00 in each case.
With `O=C(Nc1ccc(Oc2ccc3[nH]c(NC(=O)OCc4ccccc4)nc3c2)cc1)Nc1cc(C(F)(F)F)ccc1F` [Example 81, Benzyl N-(5-(4-((2-fluoro-5-(trifluoromethyl)phenyl)aminocarbonylamino)phenoxy)-1H-benzimidazol-2-yl)carbamate], the VEGF-C entry in test [1] is listed as “−”. For the same compound, the pIC50 (in test [2]; on GST-VEGFR2; in test [3]) was more than 7.00 throughout.
On to `O=C(CCc1cccnc1)Nc1nc2cc(Oc3ccc(NC(=O)Nc4cc(C(F)(F)F)ccc4F)cc3)ccc2[nH]1` [Example 88, N-(5-(4-((2-Fluoro-5-(trifluoromethyl)phenyl)aminocarbonylamino)phenoxy)-1H-benzimidazol-2-yl)-3-(pyridine-3-yl)propionamide], for which the pIC50 (in test [1]; in test [2]; against GST-VEGFR2; in test [3]) was more than 7.00 each time.
